Experimental data from US20250243189A1, “HERBICIDAL IMIDAZOLE-CONTAINING COMPOUNDS” (SYNGENTA CROP PROTECTION AG, priority 2022, published 2025).

Tests used:
Type in all cases: in vivo
Settings in all cases: 250 g/ha, evaluated after 13 days, five-point scale
AMAPA [1] = test: Post-emergence herbicidal glasshouse test
Experimental: [Worded in the source for another organism; this organism is reported under the same test.] (§1) Seeds of a variety of test species are sown in standard soil in pots Amaranthus retoflexus (AMARE), Echinochloa crus-galli (ECHCG), Setaria faberi (SETFA)). After cultivation for one day (pre-emergence) or after 8 days cultivation (post-emergence) under controlled conditions in a glasshouse (at 24/16° C., day/night; 14 hours light; 65% humidity), the plants are sprayed with an aqueous spray solution derived from the formulation of the technical active ingredient in acetone/water (50:50) solution containing 0.5% Tween 20 (polyoxyethelyene sorbitan monolaurate, CAS RN 9005-64-5). Compounds are applied at 250 g/ha unless otherwise stated. The test plants are then grown in a glasshouse under controlled conditions in a glasshouse (at 24/16° C., day/night; 14 hours light; 65% humidity) and watered twice daily. After 13 days for pre and post-emergence, the test is evaluated for the percentage damage caused to the plant. The biological activities are shown in the following table on a five-point scale (5=81-100%; 4=61-80%; 3=41-60%; 2=21-40%; 1=0-20%).

[2] = system: Amaranthus retoflexus (AMARE); test: Post-emergence herbicidal glasshouse test
Experimental: as §1

[3] = system: Echinochloa crus-galli (ECHCG); test: Post-emergence herbicidal glasshouse test
Experimental: as §1

IPOHE [4] = test: Post-emergence herbicidal glasshouse test
Experimental: as §1

AMAPA [5] = test: Pre-emergence herbicidal glasshouse test
Experimental: [Worded in the source for another organism; this organism is reported under the same test.] as §1

[6] = system: Amaranthus retoflexus (AMARE); test: Pre-emergence herbicidal glasshouse test
Experimental: as §1

[7] = system: Echinochloa crus-galli (ECHCG); test: Pre-emergence herbicidal glasshouse test
Experimental: as §1

IPOHE [8] = test: Pre-emergence herbicidal glasshouse test
Experimental: as §1

SMILES	percentage damage caused to the plant, AMAPA (AMAPA [1])	percentage damage caused to the plant, AMARE [2]	percentage damage caused to the plant, ECHCG [3]	percentage damage caused to the plant, IPOHE (IPOHE [4])	percentage damage caused to the plant, AMAPA (AMAPA [5])	percentage damage caused to the plant, AMARE [6]	percentage damage caused to the plant, ECHCG [7]	percentage damage caused to the plant, IPOHE (IPOHE [8])
Cn1cc(Cl)c(-c2nc(C(F)(F)F)cn2Cc2ncc(Cl)cn2)n1 [Compound 1.043]	1 (1=0-20%)	1 (1=0-20%)	1 (1=0-20%)	1 (1=0-20%)	1 (1=0-20%)	1 (1=0-20%)	1 (1=0-20%)	1 (1=0-20%)
FC(F)(F)c1cn(Cc2ncc(Cl)cn2)c(-c2csc(Cl)n2)n1 [Compound 1.009]	2 (2=21-40%)	2 (2=21-40%)	1 (1=0-20%)	1 (1=0-20%)	3 (3=41-60%)	4 (4=61-80%)	1 (1=0-20%)	1 (1=0-20%)
FC(F)(F)c1cn(Cc2ncc(Cl)cn2)c(-c2scnc2Cl)n1 [Compound 1.045]	4 (4=61-80%)	4 (4=61-80%)	2 (2=21-40%)	4 (4=61-80%)	5 (5=81-100%)	5 (5=81-100%)	1 (1=0-20%)	5 (5=81-100%)
FC(F)(F)c1cn(Cc2ncc(Cl)cn2)c(-c2cscn2)n1 [Compound 1.023]	1 (1=0-20%)	1 (1=0-20%)	1 (1=0-20%)	2 (2=21-40%)	1 (1=0-20%)	–	1 (1=0-20%)	1 (1=0-20%)
FC(F)(F)c1cn(Cc2ncc(Cl)cn2)c(-c2cc(Cl)cs2)n1 [Compound 1.010]	4 (4=61-80%)	4 (4=61-80%)	4 (4=61-80%)	4 (4=61-80%)	5 (5=81-100%)	5 (5=81-100%)	5 (5=81-100%)	4 (4=61-80%)
FC(F)(F)c1cn(Cc2ncc(Cl)cn2)c(-c2sccc2Br)n1 [Compound 1.044]	2 (2=21-40%)	2 (2=21-40%)	1 (1=0-20%)	3 (3=41-60%)	5 (5=81-100%)	5 (5=81-100%)	1 (1=0-20%)	1 (1=0-20%)
Cc1nnsc1-c1nc(C(F)(F)F)cn1Cc1ncc(Cl)cn1 [Compound 1.007]	4 (4=61-80%)	5 (5=81-100%)	2 (2=21-40%)	4 (4=61-80%)	5 (5=81-100%)	5 (5=81-100%)	4 (4=61-80%)	5 (5=81-100%)
FC(F)(F)c1cn(Cc2ncc(Cl)cn2)c(-c2csc(Cl)c2)n1 [Compound 1.021]	5 (5=81-100%)	4 (4=61-80%)	4 (4=61-80%)	4 (4=61-80%)	5 (5=81-100%)	5 (5=81-100%)	5 (5=81-100%)	4 (4=61-80%)
FC(F)Oc1cccc(Cn2cc(C(F)(F)F)nc2-c2ccc(Cl)s2)n1 [Compound 1.048]	1 (1=0-20%)	1 (1=0-20%)	1 (1=0-20%)	1 (1=0-20%)	1 (1=0-20%)	1 (1=0-20%)	1 (1=0-20%)	–
FC(F)(F)c1cn(Cc2ccc(Cl)cn2)c(-c2ccc(Cl)s2)n1 [Compound 1.047]	5 (5=81-100%)	5 (5=81-100%)	4 (4=61-80%)	4 (4=61-80%)	5 (5=81-100%)	5 (5=81-100%)	4 (4=61-80%)	2 (2=21-40%)
Fc1cc(Cl)cnc1Cn1cc(C(F)(F)F)nc1-c1ccc(Cl)s1 [Compound 1.051]	5 (5=81-100%)	5 (5=81-100%)	4 (4=61-80%)	3 (3=41-60%)	5 (5=81-100%)	5 (5=81-100%)	5 (5=81-100%)	4 (4=61-80%)
FC(F)(F)c1cn(Cc2ncc(Cl)cn2)c(-c2sc(Cl)nc2Cl)n1 [Compound 1.046]	2 (2=21-40%)	2 (2=21-40%)	1 (1=0-20%)	1 (1=0-20%)	4 (4=61-80%)	1 (1=0-20%)	1 (1=0-20%)	1 (1=0-20%)
FC(F)(F)c1cn(Cc2ncc(Cl)cn2)c(-c2cnco2)n1 [Compound 1.020]	2 (2=21-40%)	3 (3=41-60%)	1 (1=0-20%)	4 (4=61-80%)	3 (3=41-60%)	5 (5=81-100%)	1 (1=0-20%)	4 (4=61-80%)
N#Cc1ccc(-c2nc(C(F)(F)F)cn2Cc2ncc(Cl)cn2)s1 [Compound 1.027]	5 (5=81-100%)	5 (5=81-100%)	5 (5=81-100%)	4 (4=61-80%)	5 (5=81-100%)	5 (5=81-100%)	5 (5=81-100%)	5 (5=81-100%)
FC(F)c1cn(Cc2ncc(Cl)cn2)c(-c2cnc(Cl)s2)n1 [Compound 1.071, 2-chloro-5-[1-[(5-chloropyrimidin-2-yl)methyl]-4-(difluoromethyl)imidazol-2-yl]thiazole]	4 (4=61-80%)	5 (5=81-100%)	4 (4=61-80%)	2 (2=21-40%)	5 (5=81-100%)	5 (5=81-100%)	4 (4=61-80%)	5 (5=81-100%)
FC(F)(F)c1cn(Cc2ncc(Cl)cn2)c(-c2nccs2)n1 [Compound 1.022]	1 (1=0-20%)	1 (1=0-20%)	1 (1=0-20%)	1 (1=0-20%)	1 (1=0-20%)	–	1 (1=0-20%)	1 (1=0-20%)
Cn1ccc(-c2nc(C(F)(F)F)cn2Cc2ncc(Cl)cn2)n1 [Compound 1.004]	1 (1=0-20%)	1 (1=0-20%)	1 (1=0-20%)	1 (1=0-20%)	1 (1=0-20%)	1 (1=0-20%)	1 (1=0-20%)	1 (1=0-20%)
Cc1nc(-c2nc(C(F)(F)F)cn2Cc2ncc(Cl)cn2)co1 [Compound 1.018]	1 (1=0-20%)	2 (2=21-40%)	1 (1=0-20%)	2 (2=21-40%)	–	2 (2=21-40%)	1 (1=0-20%)	1 (1=0-20%)
